From article PMC10879502, “Linking ATP and allosteric sites to achieve superadditive binding with bivalent EGFR kinase inhibitors” (Communications Chemistry, 2024)
“And” between values parts separate entries of the source, which are not always exact repeats. Identical values can stand only once. Like-named read-outs stand apart in the source and are kept apart here. Each block holds one compound with its values, some of them ahead of it.

Assays:
[1] = molecular target: T1, EGFR L858R (LR) kinase domain (Homo sapiens, UniProt P00533, L858R); assay: HTRF KinEASE-TK kinase activity assay; assay type: biochemical
T1 construct: The EGFR kinase domain (residues 696–1022) was cloned into pTriEx; 6xHis (N, cleaved yes); GST (N, cleaved yes); made in house; host or cells: SF9 insect cells, baculovirus

CSNK1E = molecular target: T2, CSNK1E (Homo sapiens, UniProt P49674); assay: KINOMEscan; assay type: binding; conditions: 1 μM
T2 construct: purchased Eurofins DiscoverX Corporation

PIK3CA(E545A) = PIK3CA(E545A) (Homo sapiens, UniProt P42336, E545A); assay: KINOMEscan; assay type: binding; conditions: 1 μM
ADCK4 = ADCK4 (Homo sapiens, UniProt Q96D53); assay: KINOMEscan; assay type: binding; conditions: 1 μM
Sequence of ADCK4 (Q96D53 whole entry): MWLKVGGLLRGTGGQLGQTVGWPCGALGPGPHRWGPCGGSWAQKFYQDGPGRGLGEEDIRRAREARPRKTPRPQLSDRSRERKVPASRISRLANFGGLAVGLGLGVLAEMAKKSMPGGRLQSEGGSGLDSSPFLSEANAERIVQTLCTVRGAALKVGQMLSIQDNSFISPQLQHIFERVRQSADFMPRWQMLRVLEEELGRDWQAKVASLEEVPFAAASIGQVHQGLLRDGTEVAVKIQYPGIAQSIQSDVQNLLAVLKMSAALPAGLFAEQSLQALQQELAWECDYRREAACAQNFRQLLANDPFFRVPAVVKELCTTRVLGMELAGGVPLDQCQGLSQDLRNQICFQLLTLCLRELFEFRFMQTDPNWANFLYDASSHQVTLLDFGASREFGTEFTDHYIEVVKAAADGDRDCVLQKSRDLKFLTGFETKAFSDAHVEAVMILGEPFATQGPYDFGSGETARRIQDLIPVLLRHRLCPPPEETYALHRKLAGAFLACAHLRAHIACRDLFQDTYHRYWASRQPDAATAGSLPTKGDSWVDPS

PRKG2 = PRKG2 (Homo sapiens, UniProt Q13237); assay: KINOMEscan; assay type: binding; conditions: 1 μM
CHEK2 = CHEK2 (Homo sapiens, UniProt O96017); assay: KINOMEscan; assay type: binding; conditions: 1 μM
Sequence of CHEK2 (O96017 whole entry): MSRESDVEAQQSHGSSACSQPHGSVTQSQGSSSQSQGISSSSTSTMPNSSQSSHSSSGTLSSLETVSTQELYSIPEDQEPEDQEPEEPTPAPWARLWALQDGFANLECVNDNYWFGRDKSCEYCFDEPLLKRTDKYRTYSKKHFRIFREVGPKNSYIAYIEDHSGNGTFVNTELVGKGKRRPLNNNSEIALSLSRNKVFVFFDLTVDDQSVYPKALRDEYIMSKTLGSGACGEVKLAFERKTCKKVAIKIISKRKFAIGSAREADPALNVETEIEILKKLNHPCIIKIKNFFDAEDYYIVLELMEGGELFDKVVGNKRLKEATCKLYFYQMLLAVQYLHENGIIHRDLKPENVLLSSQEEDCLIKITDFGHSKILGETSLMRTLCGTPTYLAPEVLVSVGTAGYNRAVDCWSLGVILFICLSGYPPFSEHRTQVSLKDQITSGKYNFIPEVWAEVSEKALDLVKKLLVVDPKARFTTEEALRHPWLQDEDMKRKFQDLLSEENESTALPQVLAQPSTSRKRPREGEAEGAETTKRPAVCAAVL

IKK-alpha = molecular target: T3, IKK-alpha (Homo sapiens, UniProt O15111); assay: KINOMEscan; assay type: binding; conditions: 1 μM
T3 construct: purchased Eurofins DiscoverX (KINOMEscan)
T3 sequence (O15111 whole entry): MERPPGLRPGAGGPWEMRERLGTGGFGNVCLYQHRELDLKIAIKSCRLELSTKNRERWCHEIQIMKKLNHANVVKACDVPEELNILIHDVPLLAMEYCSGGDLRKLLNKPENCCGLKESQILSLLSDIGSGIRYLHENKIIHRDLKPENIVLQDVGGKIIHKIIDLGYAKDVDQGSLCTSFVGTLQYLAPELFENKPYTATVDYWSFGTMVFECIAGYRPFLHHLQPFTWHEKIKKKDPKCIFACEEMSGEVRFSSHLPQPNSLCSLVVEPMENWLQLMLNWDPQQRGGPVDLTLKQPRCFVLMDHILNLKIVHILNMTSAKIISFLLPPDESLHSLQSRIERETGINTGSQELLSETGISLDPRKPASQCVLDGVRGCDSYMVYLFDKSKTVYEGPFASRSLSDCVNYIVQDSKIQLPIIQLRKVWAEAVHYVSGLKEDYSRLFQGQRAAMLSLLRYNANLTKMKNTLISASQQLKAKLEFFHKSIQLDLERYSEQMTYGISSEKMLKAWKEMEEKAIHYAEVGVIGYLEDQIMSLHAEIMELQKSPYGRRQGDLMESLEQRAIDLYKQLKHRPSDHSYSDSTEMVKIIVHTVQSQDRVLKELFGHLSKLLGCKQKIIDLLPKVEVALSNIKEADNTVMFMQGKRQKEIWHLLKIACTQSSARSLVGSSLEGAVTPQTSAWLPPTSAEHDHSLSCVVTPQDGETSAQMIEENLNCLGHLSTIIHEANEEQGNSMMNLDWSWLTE

[2] = molecular target: RSK3(Kin.Dom.1-N-terminal) (Homo sapiens, UniProt Q15349); assay: KINOMEscan; assay type: binding; conditions: 1 μM
Sequence of RSK3(Kin.Dom.1-N-terminal) (Q15349 59-318 limits assumed): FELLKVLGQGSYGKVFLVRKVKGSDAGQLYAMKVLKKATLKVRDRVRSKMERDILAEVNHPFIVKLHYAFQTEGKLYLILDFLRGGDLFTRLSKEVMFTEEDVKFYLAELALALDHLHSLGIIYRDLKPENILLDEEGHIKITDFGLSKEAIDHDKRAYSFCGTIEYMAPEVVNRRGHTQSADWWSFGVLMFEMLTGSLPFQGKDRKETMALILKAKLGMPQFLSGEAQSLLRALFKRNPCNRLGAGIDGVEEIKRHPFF

[3] = molecular target: TYK2(JH1domain-catalytic) (Homo sapiens, UniProt P29597); assay: KINOMEscan; assay type: binding; conditions: 1 μM
Sequence of TYK2(JH1domain-catalytic) (P29597 897-1176 limits assumed): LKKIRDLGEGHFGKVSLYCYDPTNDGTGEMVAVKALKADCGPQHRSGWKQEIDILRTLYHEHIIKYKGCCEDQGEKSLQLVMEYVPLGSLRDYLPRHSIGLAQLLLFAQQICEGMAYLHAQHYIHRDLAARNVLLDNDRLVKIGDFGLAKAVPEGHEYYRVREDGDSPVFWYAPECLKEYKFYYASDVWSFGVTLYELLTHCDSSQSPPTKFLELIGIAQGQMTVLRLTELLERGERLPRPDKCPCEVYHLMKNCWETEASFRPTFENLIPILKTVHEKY

PRKCI = PRKCI (Homo sapiens, UniProt P41743); assay: KINOMEscan; assay type: binding; conditions: 1 μM
SgK110 = SgK110 (Homo sapiens, UniProt P0C264); assay: KINOMEscan; assay type: binding; conditions: 1 μM
FLT1 = FLT1 (Homo sapiens, UniProt P17948); assay: KINOMEscan; assay type: binding; conditions: 1 μM
PRP4 = PRP4 (Homo sapiens, UniProt Q13523); assay: KINOMEscan; assay type: binding; conditions: 1 μM
Description: (§1) Figure S19 : Metabolic stability determination of 4 in human liver microsomes, compared to a negative control containing bovine serum albumin instead of liver microsomes and a positive control using verapamil instead of compound.
(§2) Table S7 : Data was obtained from KINOMEscan TM using 1 μM of compound 4 against 468 kinases. Eurofins DiscoverX Corporation (San Diego), CA 92121, USA. Results stated as percent of control (POC), where lower values are associated with lower Kd values. […]
(§3) ABL1(F317L)-nonphosphorylated 37 […]
(§4) (1 picture or pasted object on this page, not shown here)

CDC2L5 = molecular target: T4, CDC2L5 (Homo sapiens, UniProt Q14004); assay: KINOMEscan; assay type: binding; conditions: 1 μM
T4 construct: purchased Eurofins DiscoverX Corporation (KINOMEscan)
Description: as §1, §2, §3, §4

CSNK1A1L = molecular target: T5, CSNK1A1L (Homo sapiens, UniProt Q8N752); assay: KINOMEscan; assay type: binding; conditions: 1 μM
T5 construct: purchased Eurofins DiscoverX Corporation

TAOK3 = molecular target: T6, TAOK3 (Homo sapiens, UniProt Q9H2K8); assay: KINOMEscan; assay type: binding; conditions: 1 μM
T6 construct: purchased Eurofins DiscoverX Corporation

PFTAIRE2 = PFTAIRE2 (Homo sapiens, UniProt Q96Q40); assay: KINOMEscan; assay type: binding; conditions: 1 μM
Sequence of PFTAIRE2 (Q96Q40 whole entry): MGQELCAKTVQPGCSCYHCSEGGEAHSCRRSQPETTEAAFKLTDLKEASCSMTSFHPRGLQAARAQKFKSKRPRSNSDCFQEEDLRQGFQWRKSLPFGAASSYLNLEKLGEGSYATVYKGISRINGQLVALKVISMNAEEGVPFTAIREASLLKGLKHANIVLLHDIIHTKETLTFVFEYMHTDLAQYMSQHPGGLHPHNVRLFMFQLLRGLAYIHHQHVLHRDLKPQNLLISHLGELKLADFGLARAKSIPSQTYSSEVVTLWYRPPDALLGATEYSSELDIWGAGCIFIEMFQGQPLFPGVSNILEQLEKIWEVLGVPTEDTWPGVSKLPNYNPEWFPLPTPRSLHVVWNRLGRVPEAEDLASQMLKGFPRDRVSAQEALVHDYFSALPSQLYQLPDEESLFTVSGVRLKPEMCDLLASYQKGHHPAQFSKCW

EPHA8 = EPHA8 (Homo sapiens, UniProt P29322); assay: KINOMEscan; assay type: binding; conditions: 1 μM
YANK1 = YANK1 (Homo sapiens, UniProt Q8WU08); assay: KINOMEscan; assay type: binding; conditions: 1 μM
Sequence of YANK1 (Q8WU08 whole entry): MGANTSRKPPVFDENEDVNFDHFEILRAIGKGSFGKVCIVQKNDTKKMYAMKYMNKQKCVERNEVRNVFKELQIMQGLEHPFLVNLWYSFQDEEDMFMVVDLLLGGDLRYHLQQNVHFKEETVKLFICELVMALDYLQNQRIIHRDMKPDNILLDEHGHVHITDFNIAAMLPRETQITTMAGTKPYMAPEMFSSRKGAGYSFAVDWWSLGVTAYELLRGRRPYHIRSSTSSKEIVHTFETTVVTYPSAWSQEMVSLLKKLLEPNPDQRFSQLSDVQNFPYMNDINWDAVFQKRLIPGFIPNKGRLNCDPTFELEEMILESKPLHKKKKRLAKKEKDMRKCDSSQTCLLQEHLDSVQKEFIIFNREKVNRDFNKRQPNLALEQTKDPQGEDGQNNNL

PKN2 = PKN2 (Homo sapiens, UniProt Q16513); assay: KINOMEscan; assay type: binding; conditions: 1 μM
Sequence of PKN2 (Q16513 whole entry): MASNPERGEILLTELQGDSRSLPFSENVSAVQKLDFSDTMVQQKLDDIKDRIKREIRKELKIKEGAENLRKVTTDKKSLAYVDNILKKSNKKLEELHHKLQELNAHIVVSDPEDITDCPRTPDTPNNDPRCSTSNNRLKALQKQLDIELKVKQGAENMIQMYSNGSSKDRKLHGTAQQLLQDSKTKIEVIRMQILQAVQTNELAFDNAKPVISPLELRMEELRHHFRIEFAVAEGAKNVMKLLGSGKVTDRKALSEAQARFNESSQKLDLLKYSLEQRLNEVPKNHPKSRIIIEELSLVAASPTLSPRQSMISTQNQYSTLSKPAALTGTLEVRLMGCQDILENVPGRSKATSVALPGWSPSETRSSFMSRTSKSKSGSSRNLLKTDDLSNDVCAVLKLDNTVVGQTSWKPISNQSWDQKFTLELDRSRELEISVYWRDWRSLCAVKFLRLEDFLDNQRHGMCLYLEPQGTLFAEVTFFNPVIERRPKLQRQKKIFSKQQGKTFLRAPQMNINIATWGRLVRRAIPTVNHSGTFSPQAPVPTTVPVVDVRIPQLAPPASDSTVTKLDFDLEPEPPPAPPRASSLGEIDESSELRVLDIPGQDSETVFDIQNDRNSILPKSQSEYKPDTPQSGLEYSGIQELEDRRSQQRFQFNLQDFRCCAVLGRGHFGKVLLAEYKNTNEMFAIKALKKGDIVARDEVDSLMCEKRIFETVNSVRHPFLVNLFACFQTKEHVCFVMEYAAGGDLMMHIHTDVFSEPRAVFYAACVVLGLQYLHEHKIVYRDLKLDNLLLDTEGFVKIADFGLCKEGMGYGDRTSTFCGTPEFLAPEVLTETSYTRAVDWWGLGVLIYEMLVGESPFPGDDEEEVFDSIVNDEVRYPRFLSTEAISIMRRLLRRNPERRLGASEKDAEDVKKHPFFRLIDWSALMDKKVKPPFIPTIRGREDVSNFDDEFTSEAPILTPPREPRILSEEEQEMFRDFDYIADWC

EGFR(L747-T751del+Sins) = assay: KINOMEscan; assay type: binding; conditions: 1 μM
FRK = molecular target: T7, FRK (Homo sapiens, UniProt P42685); assay: KINOMEscan; assay type: binding; conditions: 1 μM
T7 construct: purchased Eurofins DiscoverX Corporation

[4] = molecular target: T8, ABL1(M351T)-phosphorylated (Homo sapiens, UniProt P00519, M351T); assay: KINOMEscan; assay type: binding; conditions: 1 μM
T8 construct: purchased Eurofins DiscoverX Corporation

SGK = SGK (Homo sapiens, UniProt O00141); assay: KINOMEscan; assay type: binding; conditions: 1 μM
GRK2 = molecular target: T9, GRK2 (Homo sapiens, UniProt P25098); assay: KINOMEscan; assay type: binding; conditions: 1 μM
T9 construct: purchased Eurofins DiscoverX Corporation
T9 sequence (P25098 whole entry): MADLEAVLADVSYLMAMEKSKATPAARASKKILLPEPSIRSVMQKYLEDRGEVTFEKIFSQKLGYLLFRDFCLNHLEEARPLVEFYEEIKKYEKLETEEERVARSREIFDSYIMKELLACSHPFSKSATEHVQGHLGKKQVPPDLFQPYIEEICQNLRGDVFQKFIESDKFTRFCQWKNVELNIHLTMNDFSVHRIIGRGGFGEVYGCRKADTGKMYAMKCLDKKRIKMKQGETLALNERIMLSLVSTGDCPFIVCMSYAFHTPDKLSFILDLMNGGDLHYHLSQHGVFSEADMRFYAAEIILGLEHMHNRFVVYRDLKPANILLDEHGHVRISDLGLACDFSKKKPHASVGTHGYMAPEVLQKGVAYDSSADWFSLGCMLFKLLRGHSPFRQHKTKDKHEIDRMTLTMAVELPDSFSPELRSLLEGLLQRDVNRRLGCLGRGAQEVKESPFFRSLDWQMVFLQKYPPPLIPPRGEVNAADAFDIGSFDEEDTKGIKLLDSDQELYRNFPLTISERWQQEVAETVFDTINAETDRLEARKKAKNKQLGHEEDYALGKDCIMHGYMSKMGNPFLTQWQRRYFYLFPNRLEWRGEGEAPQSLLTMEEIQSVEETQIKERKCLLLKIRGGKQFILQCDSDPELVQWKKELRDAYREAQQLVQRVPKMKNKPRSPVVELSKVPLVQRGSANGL

- activity ([1]; LR, [Inhibitor] 1.3e-5 nM, read-out: percent inhibition): 93.5% and 92.2% and 100%
- activity ([1]; LR, [Inhibitor] 3.18e-5 nM, read-out: percent inhibition): 90.3% (2×) and 95.9%
- activity ([1]; LR, [Inhibitor] 7.78e-5 nM, read-out: percent inhibition): 71% and 67.2% and 70.8%
- activity at 190.4 fM ([1]; LR, [Inhibitor] 0.000190441 nM, read-out: percent inhibition): 39.1%
- activity at 466 fM ([1]; LR, [Inhibitor] 0.000465979 nM, read-out: percent inhibition): 22.7%
- activity at 1.14 pM ([1]; LR, [Inhibitor] 0.00114018 nM, read-out: percent inhibition): 13.5%
- activity at 2.79 pM ([1]; LR, [Inhibitor] 0.00278983 nM, read-out: percent inhibition): 8.55%
- activity at 6.826 pM ([1]; LR, [Inhibitor] 0.00682626 nM, read-out: percent inhibition): 4.28%
- activity at 16.7 pM ([1]; LR, [Inhibitor] 0.0167028 nM, read-out: percent inhibition): 1.88%
- IC50 ([1]; enzyme 0.1 nM, ATP 100 µM, read-out: Biochemical EGFR IC50, LR): 1.5 ± 0.1 nM
SMILES: CSc1nc(-c2cccc(NC(=O)c3cccc4c3NC(=O)c3ccccc3N4)c2)c(-c2ccnc(NC(C)=O)c2)[nH]1 [Compound 2]

SMILES: C=CC(=O)Nc1ccc(OC)c(Nc2cc(-c3[nH]c(CC)nc3-c3cccc(NC(=O)c4cccc5c4NC(=O)c4ccccc4N5)c3)ccn2)c1 [Compound 4]
- POC (CSNK1E): 88% of control
- POC (PIK3CA(E545A)): 100% of control
- POC (ADCK4): 85% of control
- POC (PRKG2): 62% of control
- POC (CHEK2): 87% of control
- POC (IKK-alpha): 100% of control
- POC [2]: 97% of control
- POC [3]: 91% of control
- POC (PRKCI): 100% of control
- POC (SgK110): 100% of control
- POC (FLT1): 100% of control
- POC (PRP4): 46% of control
- POC (CDC2L5): 74% of control
- POC (CSNK1A1L): 91% of control
- POC (TAOK3): 95% of control
- POC (PFTAIRE2): 84% of control
- POC (EPHA8): 98% of control
- POC (YANK1): 84% of control
- POC (PKN2): 100% of control
- POC (EGFR(L747-T751del+Sins)): 7.6% of control
- POC (FRK): 20% of control
- POC [4]: 67% of control
- POC (SGK): 86% of control
- POC (GRK2): 100% of control
